According to US11324832B2, “Tripartite modulators of endosomal G protein-coupled receptors” (Endosome Therapeutics, Inc., priority 2015, dated 2022):
pIC50: −log10 of the molar value. Where a SMILES comes first, the peptide text is derived from it. Where no end group is shown, it is not given here. [ ]: non-standard residue; d: D form.

What was measured:
[1] = Stability in human cerebrospinal fluid; type: in vitro ADME; settings: Example 2, expected
Procedure: (§1) To assess stability in cerebrospinal fluid, spantide or Compound 1 (10 μg/ml) was incubated in human cerebrospinal fluid (0-4 h, 37° C.), and then snap frozen. Proteins were precipitated using ACN. To assess stability in the spinal cord, spantide or Compound 1 was injected intrathecally to mice (10 μM, 5 μl, L3/L4). After 3 hours, a spinal cord segment 5 mm on either side the injection site was removed and snap frozen. Tissues were crushed with a glass rod in a mixture of methanol (30 μl) and EDTA/KF (60 μl, 0.1 M EDTA, 4 g/l KF), vortexed and centrifuged to remove lipids. Peptides were extracted from the pellet with 0.5% formic acid in 75% ACN/H2O (100 μl). Samples were analyzed assayed by LC/MS using a Waters Xevo TQ or TQD triple quadrupole mass spectrometer coupled to a Waters UPLC. Peptides were separated by HPLC (Supelco Ascentis Express Peptide ES C18 column, 50×2.1 mm, 2.7 μm) with 0.05% formic acid in H2O and ACN as solvents. Peptides were quantified by comparison to calibration standards (50-50,000 ng/ml).

[2] = Stability in the spinal cord after intrathecal injection to mice; type: in vivo, mouse; settings: 10 μM, 5 μl, spinal cord after 3 hours
Procedure: as §1

NK1R = NK1R (Rattus norvegicus, UniProt P14600); assay: SP-stimulated Ca2+ signaling in HEK-NK1R cells, antagonist mode; type: cell-based; parameters: Full length and truncated 6312 rat HA-NK1R have been described; expressed in transfected cells; host or cells: HEK293 (transient)
Procedure: [Ca^2+]i was measured as described (Jensen, D. D. et al., J Biol Chem, 2014, 289, 20283-20294). HEK293 cells transiently expressing HA-NK1R or HA-CLR/Myc-RAMP1 were loaded with Fura2-AM (2 μM).

Gαq = assay: BRET of Gαq activation and trafficking in HEK293 cells; type: cell-based; settings: SP 0.1-10 nM, 15 min
Procedure: Since PKC and cAMP signaling via GPCRs depends on heterotrimeric G-proteins, the capacity of SP to activate G-proteins in endosomes of HEK293 cells was examined. BRET was used to determine the proximity of the NK1R and Gαq to Rab5a and Gγ2. SP (0.1-10 nM) decreased NK1R-RLuc8/KRas-Venus BRET, which mirrored the increase in NK1R-RLuc8/Rab5a-Venus BRET (FIG. 3A, B). […] Immunofluorescence and super-resolution microscopy were used to determine whether Gαq co-localized with the NK1R at the plasma membrane or in endosomes of HEK-NK1R cells. After incubation with SP (10 nM) at 4° C., NK1R immunoreactivity (NK1R-IR) and Gαq-IR were colocalized at the plasma membrane. After washing and warming to 37° C. for 15 min, NK1R-IR and Gαq-IR were co-localized with early endosomal antigen 1 (EEA1) (data not shown). Thus, SP activates this G protein complex by its dissociation and recruits Gαq to endosomes.
HEK293 cells were transfected with the following cDNAs: 1 μg NK1R-RLuc8 or 1 μg CLR-RLuc8+1 μg Myc-RAMP1+4 μg KRas-Venus, 4 μg Rab5a-Venus, 4 μg βarr1-YFP, or 4 μg βarr2-YFP; or 1 μg NK1R+0.5 μg Gαq-RLuc8+1 μg Gβ1+4 μg Gγ2-Venus; or 1 μg NK1R+0.5 μg Gαq-RLuc8+1 μg Gβ1+1 μg Gγ2+4 μg Rab5a-Venus. […] BRET ratios were determined using a microplate reader LUMIstar Omega (BMG LabTech) before and after challenge with SP (0.1-10 nM) or vehicle (dH2O).

[3] = tested on: NK1R-positive neurons in lamina I of the dorsal horn; assay: Cell-attached patch clamp recordings in rat spinal cord slices; type: cell-based; settings: SP 1 μM, 2 min
Procedure: To evaluate whether NK1R endosomal signaling mediates this sustained activation, cell-attached patch clamp recordings were made from NKiR-positive neurons in lamina I of the dorsal horn in slices of rat spinal cord. […] These findings support a role for NK1R endocytosis in persistent neuronal excitation.
Parasagittal slices (340-400 μm) were prepared using a vibratome from the lumbar region of the rat spinal cord in ice-cold sucrose-based artificial CSF (sACSF) (mM: 100 sucrose, 63 NaCl, 2.5 KCl, 1.2 NaH2PO4, 1.2 MgCl2, 25 glucose, 25 NaHCO3; 95% O2/5% CO2). Slices were transferred to N-Methyl-D-Glucamine (NMDG)-based recovery ACSF (rACSF) (mM: 93 NMDG, 93 HCl, 2.5 KCl, 1.2 NaH2PO4, 30 NaHCO3, 20 HEPES, 25 glucose, 5 Na ascorbate, 2 thiourea, 3 Na pyruvate, 10 MgSO4, 0.5 CaCl2; 95% O2/5% CO2, 15 min, 34° C.). Slices were transferred to normal ACSF (mM: 125 NaCl, 2.5 KCl, 1.25 NaH2PO4, 1.2 MgCl2, 2.5 CaCl2, 25 glucose, 11 NaHCO3; 95% O2/5% CO2) containing 10 μM MK-801 (45 min, 34° C.), then maintained at RT.
Slices of rat spinal cord were transferred to a recording chamber and superfused with normal ACSF (2 ml·min^−1, 36° C.). […] PS2 was not soluble in the low concentrations of DMSO required for electrophysiology. Large, NKiR-positive, presumed nociceptive lamina I neurons were visually identified as described (Imlach, W. L., et al., Molecular Pharmacology, 2015, 88, 460-428). Spontaneous currents were recorded in cell-attached configuration (Multiclamp 700B, Molecular Devices, Sunnyvale, Calif.), sampled at 10 kHz, high pass filtered at 1 Hz, and capacitatively coupled action potential events were analyzed using Axograph X, V 1.4.4 (Axograph). Patch electrodes (resistance 2.5-3.5 MQ) contained KMES-based internal solution (mM: 105 KMES, 20 NaCl, 5 HEPES, 10 BAPTA, 1.5 MgCl2, 4 MgATP, 0.4 NaGTP, 0.1% biocytin; 285-295 mosmol·l^−1) to facilitate subsequent recordings of action potential properties in whole-cell configuration. Recordings were made in the presence of CNQX (6-cyano-7-nitroquinoxaline-2,3-dione) (10 μM; AMPA/kainate receptor antagonist), picrotoxin (100 μM; GABAA receptor antagonist), strychnine (0.5 μM; glycine and acetylcholine receptor antagonist), and AP5 ((2R)-amino-5-phosphonovaleric acid; (2R)-amino-5-phosphonopentanoate) (100 μM; NMDA receptor antagonist) to minimize presynaptic influences on action potential properties. […] Recordings were sampled at 10 kHz and filtered with a high pass filter at 1 Hz and firing rate was measured in two-minute interval bins. At the end of each cell-attached recording, whole-cell recordings were made in current-clamp mode to confirm retention of normal action potential firing. Data were only included in the analysis if cells had action potential amplitudes that were ≥50 mV above threshold to ensure viable neurons were included. Cells were filled with biocytin and sections were processed to confirm NK1R expression by immunofluorescence. […] The firing time was determined as the duration of the response to last action potential. To assess synaptic transmission, whole-cell configuration recordings were made under control conditions or after exposure to Dy4 or Dy4 inact; a bipolar stimulating electrode was placed at the dorsal root entry zone, and electrically-evoked excitatory postsynaptic currents recorded as described (Imlach, W. L., et al., Molecular Pharmacology, 2015, 88, 460-428).

Chain of NK1R (P14600 whole entry, the tested form may be a part): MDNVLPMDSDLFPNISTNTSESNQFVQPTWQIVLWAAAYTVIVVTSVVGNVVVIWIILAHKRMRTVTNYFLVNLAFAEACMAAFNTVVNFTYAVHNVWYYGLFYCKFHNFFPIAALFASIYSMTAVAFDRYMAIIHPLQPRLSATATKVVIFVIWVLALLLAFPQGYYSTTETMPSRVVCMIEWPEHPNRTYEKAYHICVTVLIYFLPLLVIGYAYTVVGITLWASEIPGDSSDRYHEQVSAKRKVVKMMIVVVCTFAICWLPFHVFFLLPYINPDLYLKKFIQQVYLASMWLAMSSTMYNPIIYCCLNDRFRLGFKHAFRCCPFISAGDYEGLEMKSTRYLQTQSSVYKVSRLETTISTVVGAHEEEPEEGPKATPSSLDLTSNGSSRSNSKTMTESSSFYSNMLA

Molecule	time stable in human CSF [1] [h]	stability after intrathecal injection to mice [2]	pIC50 (NK1R)	Gαq-RLuc8/Gγ2-Venus BRET (Gαq)	Gαq-RLuc8/Rab5a-Venus BRET (Gαq)	firing of action potentials [3]
CC(C)C[C@H](NC(=O)[C@H](CC(C)C)NC(=O)[C@@H](Cc1c[nH]c2ccccc12)NC(=O)[C@H](Cc1ccccc1)NC(=O)[C@@H](Cc1c[nH]c2ccccc12)NC(=O)[C@H](CCC(N)=O)NC(=O)[C@H](CCC(N)=O)NC(=O)[C@@H]1CCCN1C(=O)[C@H](CCCCN)NC(=O)[C@@H]1CCCN1C(=O)[C@H](N)CCCN=C(N)N)C(N)=O [spantide, ^DArg-Pro-Lys-Pro-Gln-Gln-^DTrp-Phe-^DTrp-Leu-Leu-NH2] (H-[dR]PKPQQ[dW]F[dW]LL-NH2)	> 4	extensively metabolized	8.23			
SP: substance P, NK1R agonist used as stimulus (RPKPQQFFGLM-NH2; ends and bridges not checked; UniProt P20366 58-68, looked up)				decreased Gαq-RLuc8/Gγ2-Venus BRET	increased Gαq-RLuc8/Rab5a-Venus BRET	triggered a rapid onset firing of action potentials that was sustained after washout
